Data on three compounds can be found in ChEMBL document CHEMBL1158404, “Antifungal activity of alkyl and heterocyclic aza-derivatives of gossypol as well as their complexes with NaClO4 against Fusarium oxysporum f. sp. lupini” (2009).

What all share (type): functional
Experiment [1] has as its system Fusarium oxysporum. Kind of experiment: Antifungal activity against Fusarium oxysporum f. sp. lupini at 20 ug/ml after 48 hrs.
In experiment [2] the test system is Fusarium oxysporum. The experiment in a line: Antifungal activity against Fusarium oxysporum f. sp. lupini at 20 ug/ml after 96 hrs.
For experiment [3], the system named is Fusarium oxysporum. Kind of experiment: Antifungal activity against Fusarium oxysporum f. sp. lupini at 20 ug/ml after 144 hrs.
Experiment [4] deals with Fusarium oxysporum. Kind of experiment: Antifungal activity against Fusarium oxysporum f. sp. lupini at 20 ug/ml after 192 hrs.
The subject of experiment [5] is Fusarium oxysporum. Kind of experiment: Antifungal activity against Fusarium oxysporum f. sp. lupini at 20 ug/ml after 192 hrs relative to control. The following applies: read-out: GI.
Experiment [6] concerns Fusarium oxysporum. The experiment in a line: Antifungal activity against Fusarium oxysporum f. sp. lupini at 1 ug/ml after 48 hrs.
The subject of experiment [7] is Fusarium oxysporum. The experiment in a line: Antifungal activity against Fusarium oxysporum f. sp. lupini at 1 ug/ml after 96 hrs.
Experiment [8] deals with Fusarium oxysporum. The experiment in a line: Antifungal activity against Fusarium oxysporum f. sp. lupini at 1 ug/ml after 144 hrs.
The subject of experiment [9] is Fusarium oxysporum. The experiment in a line: Antifungal activity against Fusarium oxysporum f. sp. lupini at 1 ug/ml after 192 hrs.
Experiment [10] relates to Fusarium oxysporum. Kind of experiment: Antifungal activity against Fusarium oxysporum f. sp. lupini at 1 ug/ml after 192 hrs relative to control. The conditions noted are these: read-out: GI.
Experiment [11] concerns Fusarium oxysporum. Kind of experiment: Antifungal activity against Fusarium oxysporum f. sp. lupini at 0.5 ug/ml after 48 hrs.
For experiment [12], the system named is Fusarium oxysporum. Kind of experiment: Antifungal activity against Fusarium oxysporum f. sp. lupini at 0.5 ug/ml after 96 hrs.
Experiment [13] deals with Fusarium oxysporum. Kind of experiment: Antifungal activity against Fusarium oxysporum f. sp. lupini at 0.5 ug/ml after 144 hrs.
The subject of experiment [14] is Fusarium oxysporum. Kind of experiment: Antifungal activity against Fusarium oxysporum f. sp. lupini at 0.5 ug/ml after 192 hrs.
Experiment [15] has as its system Fusarium oxysporum. Kind of experiment: Antifungal activity against Fusarium oxysporum f. sp. lupini at 0.5 ug/ml after 192 hrs relative to control. The following applies: read-out: GI.
Experiment [16] deals with Fusarium oxysporum. Kind of experiment: Antifungal activity against Fusarium oxysporum f. sp. lupini at 0.1 ug/ml after 48 hrs.
Experiment [17] deals with Fusarium oxysporum. The experiment in a line: Antifungal activity against Fusarium oxysporum f. sp. lupini at 0.1 ug/ml after 96 hrs.
Experiment [18] concerns Fusarium oxysporum. The experiment in a line: Antifungal activity against Fusarium oxysporum f. sp. lupini at 0.1 ug/ml after 144 hrs.
The test system of experiment [19] is Fusarium oxysporum. The experiment in a line: Antifungal activity against Fusarium oxysporum f. sp. lupini at 0.1 ug/ml after 192 hrs.
In experiment [20] the test system is Fusarium oxysporum. Kind of experiment: Antifungal activity against Fusarium oxysporum f. sp. lupini at 0.1 ug/ml after 192 hrs relative to control. The conditions noted are these: read-out: GI.

Consider `Cc1cc2c(C(C)C)c(O)c(O)c(C=O)c2c(O)c1-c1c(C)cc2c(C(C)C)c(O)c(O)c(C=O)c2c1O` [GOSSYPOL], for which the “Radial growth inhibition of fungi (Ā) (mm)” value (“Radial growth inhibition” below) in the experiment with Fusarium oxysporum [1] is listed as 14.88 mm; with Fusarium oxysporum [2] it was 25.25 mm; in the experiment on Fusarium oxysporum [3], 35 mm; in the experiment on Fusarium oxysporum [4], 46 mm; with Fusarium oxysporum [6] it was 17.25 mm; in the experiment on Fusarium oxysporum [7], 26.25 mm. Further, the “Radial growth inhibition” value in the experiment on Fusarium oxysporum [8] is reported as 36.75 mm; in the experiment on Fusarium oxysporum [9], 47.25 mm; with Fusarium oxysporum [11] it was 18.63 mm; in the experiment with Fusarium oxysporum [12], 27.88 mm; with Fusarium oxysporum [13], 39.5 mm; with Fusarium oxysporum [14], 50.5 mm. Further, the “Radial growth inhibition” value in the experiment with Fusarium oxysporum [16] was 19.63 mm; in the experiment on Fusarium oxysporum [17] it was 30.63 mm; in the experiment on Fusarium oxysporum [18], 42.75 mm; in the experiment on Fusarium oxysporum [19], 55 mm. Also, in the experiment on Fusarium oxysporum [5], the inhibition of growth at 20 µg/mL came out at 22.4%. In addition, the inhibition of growth at 1 µg/mL in the experiment on Fusarium oxysporum [10] was determined as 20.3%. The inhibition of growth at 0.5 µg/mL with Fusarium oxysporum [15] is 14.8%. The inhibition of growth at 0.1 µg/mL in the experiment with Fusarium oxysporum [20] was determined as 7.2%.
Turning to `C=CCN/C=C1\C(=O)C(O)=C(C(C)C)c2cc(C)c(-c3c(C)cc4c(c3O)/C(=C/NCC=C)C(=O)C(O)=C4C(C)C)c(O)c21`, the “Radial growth inhibition” value in the experiment on Fusarium oxysporum [1] stood at 14.63 mm; with Fusarium oxysporum [2] it was 24.75 mm; in the experiment with Fusarium oxysporum [3], 34.63 mm; in the experiment on Fusarium oxysporum [4], 45.88 mm; in the experiment with Fusarium oxysporum [6], 17.13 mm; in the experiment with Fusarium oxysporum [7], 26 mm. Also, the “Radial growth inhibition” value in the experiment on Fusarium oxysporum [8] worked out at 36.63 mm; with Fusarium oxysporum [9] it was 47 mm; in the experiment on Fusarium oxysporum [11], 18.13 mm; with Fusarium oxysporum [12], 27.25 mm; with Fusarium oxysporum [13] it was 38.88 mm; in the experiment on Fusarium oxysporum [14] it was 50 mm. Also, the “Radial growth inhibition” value in the experiment with Fusarium oxysporum [16] came to 19.25 mm; in the experiment on Fusarium oxysporum [17], 29.88 mm; with Fusarium oxysporum [18], 41.63 mm; with Fusarium oxysporum [19], 53.75 mm. Also, the inhibition of growth at 20 µg/mL in the experiment on Fusarium oxysporum [5] is 22.6%. Moreover, the inhibition of growth at 1 µg/mL with Fusarium oxysporum [10] came out at 20.7%. The inhibition of growth at 0.5 µg/mL in the experiment on Fusarium oxysporum [15] was 15.6%. Also, in the experiment on Fusarium oxysporum [20], the inhibition of growth at 0.1 µg/mL is 9.3%.
Turning to `Cc1cc2c(c(O)c1-c1c(C)cc3c(c1O)/C(=C/NCCOCCO)C(=O)C(O)=C3C(C)C)/C(=C/NCCOCCO)C(=O)C(O)=C2C(C)C`, the “Radial growth inhibition” value with Fusarium oxysporum [1] is 14.38 mm; in the experiment on Fusarium oxysporum [2], 24.5 mm; in the experiment with Fusarium oxysporum [3], 34.5 mm; in the experiment on Fusarium oxysporum [4], 45.25 mm; with Fusarium oxysporum [6] it was 16 mm; with Fusarium oxysporum [7], 25.75 mm. In addition, the “Radial growth inhibition” value in the experiment with Fusarium oxysporum [8] worked out at 35.88 mm; in the experiment with Fusarium oxysporum [9], 46.25 mm; with Fusarium oxysporum [11], 17.63 mm; in the experiment with Fusarium oxysporum [12] it was 26.5 mm; in the experiment on Fusarium oxysporum [13] it was 38 mm; with Fusarium oxysporum [14] it was 49.5 mm. Besides, the “Radial growth inhibition” value was determined as 18.13 mm with Fusarium oxysporum [16], 28.5 mm in the experiment on Fusarium oxysporum [17], 40.38 mm in the experiment on Fusarium oxysporum [18] and 52.63 mm in the experiment with Fusarium oxysporum [19]. Besides, the inhibition of growth at 20 µg/mL in the experiment on Fusarium oxysporum [5] stood at 23.6%. The inhibition of growth at 1 µg/mL in the experiment on Fusarium oxysporum [10] amounted to 21.9%. For the same compound, in the experiment with Fusarium oxysporum [15], the inhibition of growth at 0.5 µg/mL was 16.5%. Further, the inhibition of growth at 0.1 µg/mL with Fusarium oxysporum [20] was found to be 11.2%.
